Columns and labels:
KB cells [1] = assay: Cytotoxicity / cytostasis test on the KB line, % inhibition of proliferation (crystal violet); type: cell-based, human; conditions: for % inhibition of proliferation: KB cells, 72 hours
Description: (§1) The cytotoxicity studies were carried out, on the one hand on the Vero line (normal monkey kidney cell), Table I, and on the other hand on the KB line (human carcinoma of the nasopharynx), Table II, according to the following method:
(§2) The products were introduced at the time of culturing, which is maintained for 72 hours. The products are tested at 100, 80, 40, 20 and 10 μm [sic]. […] The percentage values for inhibition of cell proliferation were measured by a colorimetric method with crystal violet, relative to control cultures containing DMSO (≤1%).

Vero cells = assay: Cytotoxicity / cytostasis test on the Vero line, % inhibition of proliferation (crystal violet); type: cell-based, monkey; conditions: 72 hours
Description: as §1, §2

tubulin = conditions: natural substances binding to tubulin receptor sites; cited from earlier work
KB cells [2] = assay: Cytotoxicity / cytostasis test on the KB line, % inhibition of proliferation (crystal violet); type: cell-based, human; conditions: 5 μm [sic], 72 hours

## CCOC(=O)c1[nH]cc(C)c1-c1ccccc1NC(=O)CNC(=O)OCc1ccccc1 [(6), Ethyl 3-[2'-(N-benzyloxycarbonylglycylamido)phenyl]-4-methyl-2-pyrrolecarboxylat]
KB cells [1]; 10 μm [sic]
  % inhibition of proliferation: 0%
KB cells [1]; 20 μm [sic]
  % inhibition of proliferation: 22%
KB cells [1]; 40 μm [sic]
  % inhibition of proliferation: 31%
KB cells [1]; 80 μm [sic]
  % inhibition of proliferation: 52%
KB cells [1]; 100 μm [sic]
  % inhibition of proliferation: 68%
Vero cells; 10 μm [sic]
  % inhibition of proliferation: 0%
Vero cells; 20 μm [sic]
  % inhibition of proliferation: 0%
Vero cells; 40 μm [sic]
  % inhibition of proliferation: 4%
Vero cells; 80 μm [sic]
  % inhibition of proliferation: 48%
Vero cells; 100 μm [sic]
  % inhibition of proliferation: 78%

## CCCCc1c(C)c(-c2ccccc2N(C)C(=O)OCc2ccccc2)c(CCC2OCCO2)n1C [(22), 5-Butyl-1,4-dimethyl-2-(1,4-dioxa-2-ethylcarbaldehyde)-3-[2'-(N-benzyloxycarbonyl-N-methylamino)phenyl]pyrrole]
KB cells [1]; 10 μm [sic]
  % inhibition of proliferation: 0%
KB cells [1]; 20 μm [sic]
  % inhibition of proliferation: 0%
KB cells [1]; 40 μm [sic]
  % inhibition of proliferation: 0%
KB cells [1]; 80 μm [sic]
  % inhibition of proliferation: 44%
KB cells [1]; 100 μm [sic]
  % inhibition of proliferation: 59%
Vero cells; 10 μm [sic]
  % inhibition of proliferation: 0%
Vero cells; 20 μm [sic]
  % inhibition of proliferation: 0%
Vero cells; 40 μm [sic]
  % inhibition of proliferation: 0%
Vero cells; 80 μm [sic]
  % inhibition of proliferation: 54%
Vero cells; 100 μm [sic]
  % inhibition of proliferation: 54%

## COC(=O)c1[nH]cc(C)c1-c1cccc([N+](=O)[O-])c1 [(2), Methyl 4-methyl-3-(3'-nitrophenyl)-2-pyrrolecarboxylate]
KB cells [1]; 10 μm [sic]
  % inhibition of proliferation: 0%
KB cells [1]; 20 μm [sic]
  % inhibition of proliferation: 0%
KB cells [1]; 40 μm [sic]
  % inhibition of proliferation: 10%
KB cells [1]; 80 μm [sic]
  % inhibition of proliferation: 50%
KB cells [1]; 100 μm [sic]
  % inhibition of proliferation: 72%
Vero cells; 10 μm [sic]
  % inhibition of proliferation: 0%
Vero cells; 20 μm [sic]
  % inhibition of proliferation: 3%
Vero cells; 40 μm [sic]
  % inhibition of proliferation: 38%
Vero cells; 80 μm [sic]
  % inhibition of proliferation: 75%
Vero cells; 100 μm [sic]
  % inhibition of proliferation: 77%

## CC[C@]1(O)C[C@H]2CN(CCc3c([nH]c4ccccc34)[C@@](C(=O)OC)(c3cc4c(cc3OC)N(C=O)[C@H]3[C@@](O)(C(=O)OC)[C@H](OC(C)=O)[C@]5(CC)C=CCN6CC[C@]43[C@@H]65)C2)C1 [vincristine]
tubulin
  inhibition of tubulin polymerization: inhibit its polymerization

## CC[C@]1(O)C[C@@H]2CN(CCc3c([nH]c4ccccc34)[C@@](C(=O)OC)(c3cc4c(cc3OC)N(C)[C@H]3[C@@](O)(C(=O)OC)[C@H](OC(C)=O)[C@]5(CC)C=CCN6CC[C@]43[C@@H]65)C2)C1 [vinblastine]
tubulin
  inhibition of tubulin polymerization: inhibit its polymerization
  spiralization of tubulin: can cause its spiralization

## Cc1c[nH]c2c(=O)[nH]c3ccccc3c12 [(4)]
KB cells [1]; 10 μm [sic]
  % inhibition of proliferation: 0%
KB cells [1]; 20 μm [sic]
  % inhibition of proliferation: 72%
KB cells [1]; 40 μm [sic]
  % inhibition of proliferation: 100%
KB cells [1]; 80 μm [sic]
  % inhibition of proliferation: 60%
KB cells [1]; 100 μm [sic]
  % inhibition of proliferation: 68%
Vero cells; 10 μm [sic]
  % inhibition of proliferation: 0%
Vero cells; 20 μm [sic]
  % inhibition of proliferation: 0%
Vero cells; 40 μm [sic]
  % inhibition of proliferation: 45%
Vero cells; 80 μm [sic]
  % inhibition of proliferation: 49-70%
Vero cells; 100 μm [sic]
  % inhibition of proliferation: 69-84%

## COc1cc([C@@H]2c3cc4c(cc3[C@H](O)[C@H]3COC(=O)[C@H]23)OCO4)cc(OC)c1OC [podophyllotoxin]
tubulin
  inhibition of tubulin polymerization: inhibit its polymerization

## CCCCc1c(C)c(-c2ccccc2NC)c(CCC2OCCO2)n1C [(23), 5-Butyl-1,4-dimethyl-2-(1,4-dioxa-2-ethylcarbaldehyde)-3-[2'-(N-methylamino)phenyl]pyrrole]
KB cells [1]; 10 μm [sic]
  % inhibition of proliferation: 48%
KB cells [1]; 20 μm [sic]
  % inhibition of proliferation: 66%
KB cells [1]; 40 μm [sic]
  % inhibition of proliferation: 81%
KB cells [1]; 80 μm [sic]
  % inhibition of proliferation: 94%
KB cells [1]; 100 μm [sic]
  % inhibition of proliferation: 100%
KB cells [1]; at low concentration, KB versus Vero
  selectivity with respect to the KB line: some degree of selectivity at low concentration with respect to the KB line
Vero cells; 10 μm [sic]
  % inhibition of proliferation: 0%
Vero cells; 20 μm [sic]
  % inhibition of proliferation: 0%
Vero cells; 40 μm [sic]
  % inhibition of proliferation: 25%
Vero cells; 80 μm [sic]
  % inhibition of proliferation: 69%
Vero cells; 100 μm [sic]
  % inhibition of proliferation: 80%
KB cells [2]
  % inhibition of proliferation: 4%

## Cc1cn(C)c(C(=O)N(C(=O)NC2CCCCC2)C2CCCCC2)c1-c1ccccc1[N+](=O)[O-] [(10), 1,4-Dimethyl-3-(2'-nitrophenyl)pyrrole-2(N,N'-cyclohexylureidocarboxamide)]
KB cells [1]; 10 μm [sic]
  % inhibition of proliferation: 0%
KB cells [1]; 20 μm [sic]
  % inhibition of proliferation: 0%
KB cells [1]; 40 μm [sic]
  % inhibition of proliferation: 0%
KB cells [1]; 80 μm [sic]
  % inhibition of proliferation: 27%
KB cells [1]; 100 μm [sic]
  % inhibition of proliferation: 45%
Vero cells; 10 μm [sic]
  % inhibition of proliferation: 0%
Vero cells; 20 μm [sic]
  % inhibition of proliferation: 0%
Vero cells; 40 μm [sic]
  % inhibition of proliferation: 25%
Vero cells; 80 μm [sic]
  % inhibition of proliferation: 100%
Vero cells; 100 μm [sic]
  % inhibition of proliferation: 100%

## CCOC(=O)c1[nH]cc(C)c1-c1ccccc1 [(1), Ethyl 4-methyl-3-phenyl-2-pyrrolecarboxylate]
KB cells [1]; 10 μm [sic]
  % inhibition of proliferation: 0%
KB cells [1]; 20 μm [sic]
  % inhibition of proliferation: 0%
KB cells [1]; 40 μm [sic]
  % inhibition of proliferation: 0%
KB cells [1]; 80 μm [sic]
  % inhibition of proliferation: 35%
KB cells [1]; 100 μm [sic]
  % inhibition of proliferation: 43%
Vero cells; 10 μm [sic]
  % inhibition of proliferation: 0%
Vero cells; 20 μm [sic]
  % inhibition of proliferation: 0%
Vero cells; 40 μm [sic]
  % inhibition of proliferation: 20%
Vero cells; 80 μm [sic]
  % inhibition of proliferation: 46%
Vero cells; 100 μm [sic]
  % inhibition of proliferation: 63%

— patent publication US5189055A, “Phenylpyrrolic compounds used as drugs, their preparation and application” (Centre National de la Recherche Scientifique (CNRS), priority 1988, dated 1993)
